The record followed here is patent publication US5719145A, “Amidine derivatives and platelet aggregation inhibitor containing the same” (Mitsui Toatsu Chemicals, Inc., priority 1996, dated 1998).

For test [1], the system named is guinea pig platelets (platelet-rich plasma). The experiment in a line: In vitro inhibition of platelet aggregation in guinea pig (ADP-induced, PRP). In kind it is cell-based. As to conditions: Cavia porcellus, ADP final concentration 5 μM, read-out: Platelet aggregation inhibitory activity in guinea pig, IC50. The method, then: In vitro experiment of platelet aggregation inhibition
1. Inhibition of platelet aggregation in Guinea pig
Blood of male guinea pig was collected with an injection syringe which contains 3.8 % sodium citrate as an anticoagulant in a ratio of 1 volume to 9 volumes of the blood. Successively, the collected blood mixture was subjected to centrifugation at 120×g for 15 minutes at room temperature to obtain platelet-rich plasma (PRP). An aliquot of PRP was further subjected to centrifugation at 1,200×g for 15 minutes to obtain platelet-poor plasma (PPP). Numbers of the platelet in PRP were measured with an automatic platelet counter: Sysmex PL-100 (manufactured by Toa Iyodenshi Co.) and PRP was diluted with PPP so as to adjust a platelet concentration to be about 300,000 particles/ μl. Platelet aggregation was measured by the following procedure with a 6 channel aggregometer: HEMA TRACER 1 (manufactured by NKK Co.).
After incubation of 240 μl of PRP at 37° C. for 2 minutes, 30 μl of the solvent of specimen as a control or of the specimen in various concentrations was added to PRP. Further 2 minutes later, 30 μl of adenosine diphosphate (final concentration: 5μM) was added to induce platelet aggregation. An inhibition percentage was obtained by comparing the maximum aggregation of the specimen drug group with that of control. […]

For test [2] the test system is unchanged. The experiment in a line: Inhibition against platelet aggregation ability after oral administration in guinea pig. In kind it is in vivo. As to conditions: Cavia porcellus, 1 h, oral administration: 37 μmol/kg, blood collected after an hour, ADP 5 μM, read-out: Aggregation inhibiting rate (%). The method, then: Experiment for inhibition against platelet aggregation ability after oral administration The specimen drug was dissolved or suspended at a concentration of 18.5 μmol/ml in a physiological saline containing 0.5% of Tween 80. […] A physiological saline containing 0.5% of Tween 80 was similarly administered as a control. […] The blood mixture was centrifuged at 800 r.p.m. for 20 minutes at room temperature to obtain PRP in the upper layer. The lower layer was further centrifuged at 3000 r.p.m. for 15 minutes to obtain PPP in upper layer. […] Platelet aggregation ability was measured according to the method for measuring in vitro platelet aggregation. […] HEMA TRACER 1 (manufactured by NKK Co.). After incubation of PRP at 37° C. for 2 minutes, a physiological saline (30 μl) was added. […] An inhibiting ratio was obtained by comparing the maximum aggregation of the specimen drug group with that of control.

The term IC50 denotes the concentration that inhibits the measured activity by half.

Where a name gives a salt, the structure may show the parent alone.

On to `CCOC(=O)CC1CCc2ccc(NC(=O)c3ccc(C(=N)N4CCN(c5ccccc5)CC4)cc3)cc2C1` (centres unmarked) [Example 43, dihydrochloride], for which, in test [1], the IC50 stood at 140 nM. Regarding `CCOC(=O)CC1CCc2ccc(NC(=O)c3ccc(C(=N)N4CCN(C)CC4)cc3)cc2C1` (centres unmarked) [Example 14, ethyl 7-[[4-(4-methylpiperazinoiminomethyl)benzoyl]amino]-1,2,3,4-tetrahydronaphthalene-2-acetate dihydrochloride], the IC50 in test [1] stood at 66 nM. The inhibition at 37 µmol/kg in test [2] was over 90%. `CCOC(=O)CC1CCc2ccc(NC(=O)c3ccc(C(=N)N4CCN(c5ccccn5)CC4)cc3)cc2C1` (centres unmarked) [Example 44, trihydrochloride]: the IC50 in test [1] came to 88 nM. Turning to `C#CCNC(=N)c1ccc(C(=O)Nc2ccc3c(c2)CC(CC(=O)OCC)CO3)cc1` (centres unmarked) [Example 26, ethyl 6-[[4-(N^2-propargylamidino)benzoyl]amino]chroman-3-acetate hydrochloride], the IC50 in test [1] was 190 nM. Also, the inhibition at 37 µmol/kg in test [2] is over 90%. As for `C#CCNC(=N)c1ccc(C(=O)Nc2ccc3c(c2)CC(CC(=O)OCC)CC3)cc1` (single isomer, unassigned) [Example 45, ethyl (-)-7-[[4-(N^2-propargylamidino)benzoyl]amino]-1,2,3,4-tetrahydronaphthalene-2-acetate hydrochloride], in test [2], the inhibition at 37 µmol/kg was over 90%. In the case of `N=C(N)c1ccc(C(=O)Nc2ccc3c(c2)CN(CC(=O)O)CC3)cc1` [Ref. Example 6, 7-[(4-amidinobenzoyl)amino]-1,2,3,4-tetrahydroisoquinoline-2-acetic acid dihydrochloride, reference compound], in test [1], the concentration for half-maximal inhibition (IC50) amounted to 6600 nM. For the compound `C#CCN=C(N)c1ccc(C(=O)Nc2ccc3c(c2)CC(CC(=O)OCC)CC3)cc1` (centres unmarked) [Example 24, ethyl 7-[[4-(N^2-propargylamidino)benzoyl]amino]-1,2,3,4-tetrahydronaphthalene-2-acetate], in test [2], the inhibition at 37 µmol/kg was over 90%. Turning to `CCOC(=O)CC1CCc2ccc(NC(=O)c3ccc(C(=N)N4CCOCC4)cc3)cc2C1` (single isomer, unassigned) [Example 47, ethyl (-)-7-[[4-(morpholinoiminomethyl)benzoyl]amino]-1,2,3,4-tetrahydronaphthalene-2-acetate hydrochloride], the inhibition at 37 µmol/kg in test [2] was over 90%.

In the case of `CCOC(=O)CC1COc2ccc(NC(=O)c3ccc(C(=N)N)cc3)cc2C1` (centres unmarked) [Reference Example 3, ethyl 6-[(4-amidinobenzoyl)amino]chroman-3-acetate hydrochloride, reference compound], the inhibition at 37 µmol/kg in test [2] came out at 39%. As to `CCOC(=O)CC1COc2cc(NC(=O)c3ccc(C(=N)N)cc3)ccc2C1` (centres unmarked) [Reference Example 7, ethyl 7-[(4-amidinobenzoyl)amino]chroman-3-acetate hydrochloride, reference compound], in test [2], the inhibition at 37 µmol/kg is 24%. For `CCOC(=O)CC1CCc2ccc(NC(=O)c3ccc(C(=N)NCc4ccccn4)cc3)cc2C1` (centres unmarked) [Example 38, ethyl 7-[[4-[N^2-(2-picolyl)amidino]benzoyl]amino]-1,2,3,4-tetrahydronaphthalene-2-acetatedihydrochloride], the inhibition at 37 µmol/kg in test [2] is over 90%. For `CCOC(=O)CC1COc2cc(NC(=O)c3ccc(C(=N)N4CCOCC4)cc3)ccc2C1` (centres unmarked) [Example 8, ethyl 7-[[4-(morpholinoiminomethyl)benzoyl]amino]chroman-3-acetate hydrochloride], the inhibition at 37 µmol/kg in test [2] is over 90%. Consider `CCOC(=O)CC1COc2ccc(NC(=O)c3ccc(C(=N)N4CCOCC4)cc3)cc2C1` (single isomer, unassigned) [Example 51, hydrochloride], for which the inhibition at 37 µmol/kg in test [2] was over 90%. Take `C#CCN(C)C(=N)c1ccc(C(=O)Nc2ccc3c(c2)CC(CC(=O)OCC)CC3)cc1` (centres unmarked) [Example 34, ethyl 7-[[4-(N^1-methyl-N^2-propargylamidino)benzoyl]amino]-1,2,3,4-tetrahydronaphthalene-2-acetate hydrochloride]: in test [2], the inhibition at 37 µmol/kg is over 90%. On to `CCOC(=O)CC1CCc2ccc(NC(=O)c3ccc(C(=N)N)cc3)cc2C1` (centres unmarked) [Reference Example 1, ethyl 7-[(4-amidinobenzoyl)amino]-1,2,3,4-tetrahydronaphthalene-2-acetate hydrochloride, reference compound], for which, in test [2], the inhibition at 37 µmol/kg is 41%.

Consider `N=C(NCc1ccccn1)c1ccc(C(=O)Nc2ccc3c(c2)CC(CC(=O)O)CC3)cc1` (centres unmarked) [Example 39, 7-[[4-[N^2-(2-picolyl)amidino]benzoyl]amino]-1,2,3,4-tetrahydronaphthalene-2-acetic acid dihydrochloride], for which, in test [1], the IC50 came out at 140 nM.

On to `CCOC(=O)CN1CCc2ccc(NC(=O)c3ccc(C(=N)N)cc3)cc2C1` [Reference example 5, ethyl 7-[(4-amidinobenzoyl)amino]-1,2,3,4-tetrahydroisoquinoline-2-acetate dihydrochloride, reference compound], for which the inhibition at 37 µmol/kg in test [2] turned out to be 10%. Consider `CCOC(=O)CC1CCc2ccc(NC(=O)c3ccc(C(=N)NCc4ccncc4)cc3)cc2C1` (centres unmarked) [Example 41, ethyl 7-[[4-[N^2-(4-picolyl)amidino]benzoyl]amino]-1,2,3,4-tetrahydronaphthalene-2-acetatedihydrochloride], for which, in test [1], the 50% inhibitory concentration (IC50) stood at 120 nM. As for `C#CCNC(=N)c1ccc(C(=O)Nc2ccc3c(c2)CC(CC(=O)OCC)CO3)cc1` (single isomer, unassigned) [Example 49, ethyl (-)-6-[[4-(N^2-propargylamidino)benzoyl]amino]chroman-3-acetate hydrochloride], the inhibition at 37 µmol/kg in test [2] is over 90%. As to `N=C(N)c1ccc(C(=O)Nc2ccc3c(c2)CC(CC(=O)O)CC3)cc1` (centres unmarked) [Ref. Example 2, 7-[(4-amidinobenzoyl)amino]-1,2,3,4-tetrahydronaphthalene-2-acetic acid hydrochloride, reference compound], the IC50 in test [1] was determined as 370 nM. Consider `CCOC(=O)CC1CCc2ccc(NC(=O)c3ccc(C(=N)N4CCSCC4)cc3)cc2C1` (centres unmarked) [Example 12, ethyl 7-[[4-(thiomorpholinoiminomethyl)benzoyl]amino]-1,2,3,4-tetrahydronaphthalene-2-acetate hydrochloride], for which the inhibition at 37 µmol/kg in test [2] is over 90%. As to `CCOC(=O)CC1CCc2ccc(NC(=O)c3ccc(C(=N)NCc4ccco4)cc3)cc2C1` (centres unmarked) [Example 29, ethyl 7-[[4-[N^2-(2-furfuryl)amidino]benzoyl]amino]-1,2,3,4-tetrahydronaphthalene-2-acetate hydrochloride], in test [2], the inhibition at 37 µmol/kg is over 90%. Take `CCOC(=O)CC1CCc2ccc(NC(=O)c3ccc(C(=N)NCCc4ccncc4)cc3)cc2C1` (centres unmarked) [Example 42, ethyl 7-[[4-[N^2-[2-(4-pyridyl)ethyl]amidino]benzoyl]amino]-1,2,3,4-tetrahydronaphthalene-2-acetate dihydrochloride]: in test [1], the 50% inhibitory concentration (IC50) was found to be 130 nM. In the case of `CCCCOC(=O)N=C(N)c1ccc(C(=O)Nc2ccc3c(c2)CC(CC(=O)OCC)CC3)cc1` (centres unmarked) [Reference Example 10, ethyl 7-[[4-[N^1-(n-butoxycarbonyl)amidino]benzoyl]amino]-1,2,3,4-tetrahydronaphthalene-2-acetate, reference compound], the inhibition at 37 µmol/kg in test [2] came out at 59%.
